Measurements reported in patent US20200385396A1, “Compond for treatment or prevention of obesity or diseases related to obesity, and application thereof” (SHANGHAI INSTITUTES FOR BIOLOGICAL SCIENCES, CHINESE …, priority 2017, published 2020).

Columns and labels:
normal-fed mice (Lean) = assay: Metabolic cage, normal-fed mice (Lean); assay type: in vivo, mouse; settings: for respiratory exchange rate / physical activity: 20 mg/kg
Method: (§1) Before starting the metabolic cage experiment, the mice were fed in a single cage for 1 week. After a one-week single cage adaptation period, three days before the start of the small molecule compound injection, the mice were injected with 25 μL of DMSO within 2 hours before turning off the lights every afternoon, allowing them to adapt to the injection for 3 days. After 3 days of injection, the acclimated mice were put into the metabolic cage. Starting from the same day, 25 μL of DMSO and HLY72 (20 mg/kg) were injected within 2 hours before turning off the lights for 3 consecutive days.
(§2) Next, the effect of HLY72 on the metabolism of mice is studied. We use two methods: (1) the relevant metabolic indexes of the mice are directly measured using the metabolic cage, and (2) the expression of the relevant key metabolic genes is detected. three metabolic parameters are obtained through the metabolic cage experiment: (1) Energy expenditure (EE), energy output is an important aspect of energy balance, under conditions such as restricted diet and fasting, mice will reduce basic metabolism, reduce energy expenditure; (2) respiratory exchange ratio (RER), based on the ratio calculated by CO2 produced and the use of 02, RER of 1 means that carbohydrates is mainly used as energy, RER of 0.7 means that fat is mainly used as fuel; (3) physical activity (Activity).

Wnt signal = assay: TOPFlash reporter gene activity test in HEK293T cells; assay type: cell-based
Method: The HEK293T cells used for the measurement of reporter gene activity were plated at 20 hours before transfection and cultured to about 50% coverage for the transfection. The transfection method was as described above. For HEK293T cells, transfection was performed according to 20 ng TOPFlash, 20 ng GFP and 460 ng lacZ per well, and Wnt3a or Nesfatin-1/NUCB2 protein was added at 18 hours after transfection to stimulate for 6-8 hours, and the cell was lysed with Boehringer Mannheim Luciferase Assay Kit (200 μl/well) for 15 minutes, 50 μl lysate was added in the fluorometer BIO-TEK Synergy2 (Gene Company Limited) to measure the GFP fluorescence intensity in the cell lysate as an internal standard, and then 20 μl luciferase substrate (Roche) was added for the reaction, the luciferase activity was detected in the chemiluminescence channel, and finally the GFP reading was used as an internal standard for homogenization.
We focus on the three small molecules HLY72, HLY103, and HSS49A (FIG. 3a). […] So that the first biochemical experiment design is: whether these three small molecules can compete for the binding of HLY179 to NUCB2 protein.

[1] = system: obese mice fed with high-fat diet (DIO); assay: Metabolic cage, obese mice fed with high-fat diet (DIO); assay type: in vivo, mouse; settings: 20 mg/kg
Method: as §1, §2

high-fat diet obese mice = assay: Blood biochemical tests and liver slices of obese mice; assay type: in vivo, mouse; settings: 20 mg/kg
Method: Mouse liver tissues were taken and fixed in 4% paraformaldehyde at 4° C. overnight. It was washed twice with PBS buffer solution in 30% and 50% ethanol for 30 minutes each, and stored in 70% ethanol at 4° C. (1) Gradient dehydration of ethanol: 80% ethanol for 30 minutes, 95% ethanol for 30 minutes, 100% ethanol for 15 minutes, and fresh 100% ethanol for 15 minutes. (2) Xylene transparent: ½ absolute ethanol plus ½ xylene for 15 minutes, xylene for 10 minutes, and fresh xylene for 10 minutes. (3) Wax immersion, embedding, sectioning: ½ xylene plus ½ paraffin for 30 minutes, paraffin 1 for 90 minutes, paraffin 2 for 120 minutes, paraffin 3 overnight for embedding, conventional section thickness was 4 μm, pasted on clean glass slides that have been processed, the slides were baked at 37° C. overnight, collected in a slide box and sealed at 4° C. (4) Xylene dewaxing, gradient ethanol rehydration: tissue sections were dewaxed three times with xylene, 10 minutes each time, and placed in ½ xylene plus ½ absolute ethanol for 15 minutes. After 5 minutes each of 100%, 90%, 80%, 70%, 50% and 30% ethanol, it was put in pure water for 5 minutes. (5) HE staining, filming: hematoxylin staining at room temperature for 20 minutes, rinsed under running water, color separation with 0.1% hydrochloric acid and ethanol for 1 second, rinsed under running water, after 1 minute each of 30%, 50%, 70%, 80% and 95% ethanol, it was stained with 1% eosin for 1 minute. It was put in absolute ethanol for 1 minute and dehydrated with fresh absolute ethanol twice for 5 minutes each time, it was put in ½ absolute ethanol plus ½ xylene for 15 minutes, and then xylene 1, 2, 3 for 5 minutes each time. Sealed with neutral gum and stored at room temperature in a dry place. The cell platform Olympus BX51 microscope was used for filming.
The effects on the various adverse indicators of obesity after drug administration were detected.

**Q.** Which results are given for C=Cc1cccc2c1N(C)Cc1cc3c(cc1-2)OCO3 [HLY72]?
**A.** energy expenditure (normal-fed mice (Lean); 20 mg/kg once a day, night (dark) and day (light)): significantly reduces; respiratory exchange rate (normal-fed mice (Lean); at night): significantly reduced; physical activity (normal-fed mice (Lean); daytime): does not affect; respiratory exchange rate (normal-fed mice (Lean); during the day): no change; physical activity (normal-fed mice (Lean); night): decreased; activity of Wnt signal activation (Wnt signal): none of them have the activity of Wnt signal activation; physical activity ([1]; at night): significantly reduced; energy expenditure ([1]; at night and during the day): significantly reduced; respiratory exchange rate compared with the DMSO group ([1]; at night and during the day): significantly reduced; physical activity ([1]; during the day): no change; alanine transaminase ALT (high-fat diet obese mice): decreased; aspertate aminotransferase AST (high-fat diet obese mice): does not change; blood glucose (high-fat diet obese mice): decreased significantly; cholesterol levels (high-fat diet obese mice): decreased significantly; triacylglycerol (high-fat diet obese mice): decreased significantly; fatty liver caused by high fat (liver slices) (high-fat diet obese mice; HE staining): well treated
